# How the values were obtained:
# Assay type in all cases: functional
# HL-60(TB) = assay: Growth inhibition of human HL-60(TB) cells assessed as cell growth at 10 uM after 48 hrs by sulforhodamine B assay relative to control; conditions: HL-60, 48 h, read-out: Activity
# MOLT-4 = assay: Growth inhibition of human MOLT4 cells assessed as cell growth at 10 uM after 48 hrs by sulforhodamine B assay relative to control; conditions: MOLT-4, 48 h, read-out: Activity
# RPMI-8226 = assay: Growth inhibition of human RPMI8226 cells assessed as cell growth at 10 uM after 48 hrs by sulforhodamine B assay relative to control; conditions: RPMI-8226, 48 h, read-out: Activity
# A549 = assay: Growth inhibition of human A549/ATCC cells assessed as cell growth at 10 uM after 48 hrs by sulforhodamine B assay relative to control; conditions: A549, 48 h, read-out: Activity
# EKVX = assay: Growth inhibition of human EKVX cells assessed as cell growth at 10 uM after 48 hrs by sulforhodamine B assay relative to control; conditions: read-out: Activity
# HOP-62 = assay: Growth inhibition of human HOP62 cells assessed as cell growth at 10 uM after 48 hrs by sulforhodamine B assay relative to control; conditions: HOP-62, 48 h, read-out: Activity
# NCI-H460 = assay: Growth inhibition of human NCI-H460 cells assessed as cell growth at 10 uM after 48 hrs by sulforhodamine B assay relative to control; conditions: NCI-H460, 48 h, read-out: Activity
# HCC 2998 = assay: Growth inhibition of human HCC2998 cells assessed as cell growth at 10 uM after 48 hrs by sulforhodamine B assay relative to control; conditions: HCC 2998, 48 h, read-out: Activity
# HCT-116 = assay: Growth inhibition of human HCT116 cells assessed as cell growth at 10 uM after 48 hrs by sulforhodamine B assay relative to control; conditions: HCT-116, 48 h, read-out: Activity
# HCT-15 = assay: Growth inhibition of human HCT15 cells assessed as cell growth at 10 uM after 48 hrs by sulforhodamine B assay relative to control; conditions: HCT-15, 48 h, read-out: Activity
# HT-29 = assay: Growth inhibition of human HT-29 cells assessed as cell growth at 10 uM after 48 hrs by sulforhodamine B assay relative to control; conditions: HT-29, 48 h, read-out: Activity
# KM12 = assay: Growth inhibition of human KM12 cells assessed as cell growth at 10 uM after 48 hrs by sulforhodamine B assay relative to control; conditions: KM12, 48 h, read-out: Activity
# SF-268 = assay: Growth inhibition of human SF268 cells assessed as cell growth at 10 uM after 48 hrs by sulforhodamine B assay relative to control; conditions: SF-268, 48 h, read-out: Activity
# SF-539 = assay: Growth inhibition of human SF539 cells assessed as cell growth at 10 uM after 48 hrs by sulforhodamine B assay relative to control; conditions: SF-539, 48 h, read-out: Activity
# SNB-19 = assay: Growth inhibition of human SNB19 cells assessed as cell growth at 10 uM after 48 hrs by sulforhodamine B assay relative to control; conditions: SNB-19, 48 h, read-out: Activity
# LOX IMVI = assay: Growth inhibition of human LOXIMVI cells assessed as cell growth at 10 uM after 48 hrs by sulforhodamine B assay relative to control; conditions: read-out: Activity
# Malme-3M = assay: Growth inhibition of human MALME-3M cells assessed as cell growth at 10 uM after 48 hrs by sulforhodamine B assay relative to control; conditions: read-out: Activity
# M14 = assay: Growth inhibition of human M14 cells assessed as cell growth at 10 uM after 48 hrs by sulforhodamine B assay relative to control; conditions: M14, 48 h, read-out: Activity
# MDA-MB-435 = assay: Growth inhibition of human MDA-MB-435 cells assessed as cell growth at 10 uM after 48 hrs by sulforhodamine B assay relative to control; conditions: MDA-MB-435, 48 h, read-out: Activity
# SK-MEL-2 = assay: Growth inhibition of human SK-MEL-2 cells assessed as cell growth at 10 uM after 48 hrs by sulforhodamine B assay relative to control; conditions: SK-MEL-2, 48 h, read-out: Activity
# SK-MEL-5 = assay: Growth inhibition of human SK-MEL-5 cells assessed as cell growth at 10 uM after 48 hrs by sulforhodamine B assay relative to control; conditions: SK-MEL-5, 48 h, read-out: Activity
# UACC-62 = assay: Growth inhibition of human UACC62 cells assessed as cell growth at 10 uM after 48 hrs by sulforhodamine B assay relative to control; conditions: UACC-62, 48 h, read-out: Activity
# IGROV-1 = assay: Growth inhibition of human IGROV1 cells assessed as cell growth at 10 uM after 48 hrs by sulforhodamine B assay relative to control; conditions: IGROV-1, 48 h, read-out: Activity
# OVCAR-5 = assay: Growth inhibition of human OVCAR5 cells assessed as cell growth at 10 uM after 48 hrs by sulforhodamine B assay relative to control; conditions: OVCAR-5, 48 h, read-out: Activity
# OVCAR-8 = assay: Growth inhibition of human OVCAR8 cells assessed as cell growth at 10 uM after 48 hrs by sulforhodamine B assay relative to control; conditions: OVCAR-8, 48 h, read-out: Activity
# NCI/ADR-RES = assay: Growth inhibition of human NCI/ADR-RES cells assessed as cell growth at 10 uM after 48 hrs by sulforhodamine B assay relative to control; conditions: read-out: Activity
# ACHN = assay: Growth inhibition of human ACHN cells assessed as cell growth at 10 uM after 48 hrs by sulforhodamine B assay relative to control; conditions: read-out: Activity
# CAKI-1 = assay: Growth inhibition of human Caki1 cells assessed as cell growth at 10 uM after 48 hrs by sulforhodamine B assay relative to control; conditions: CAKI-1, 48 h, read-out: Activity
# RXF 393 = assay: Growth inhibition of human RXF393 cells assessed as cell growth at 10 uM after 48 hrs by sulforhodamine B assay relative to control; conditions: RXF 393, 48 h, read-out: Activity
# SN12C = assay: Growth inhibition of human SN12C cells assessed as cell growth at 10 uM after 48 hrs by sulforhodamine B assay relative to control; conditions: read-out: Activity
# TK-10 = assay: Growth inhibition of human TK10 cells assessed as cell growth at 10 uM after 48 hrs by sulforhodamine B assay relative to control; conditions: TK-10, 48 h, read-out: Activity
# PC-3 = assay: Growth inhibition of human PC3 cells assessed as cell growth at 10 uM after 48 hrs by sulforhodamine B assay relative to control; conditions: PC-3, 48 h, read-out: Activity
# MDA-MB-231 = assay: Growth inhibition of human MDA-MB-231 cells assessed as cell growth at 10 uM after 48 hrs by sulforhodamine B assay relative to control; conditions: MDA-MB-231, 48 h, read-out: Activity
# Hs-578T = assay: Growth inhibition of human Hs 578T cells assessed as cell growth at 10 uM after 48 hrs by sulforhodamine B assay relative to control; conditions: read-out: Activity
structure (smiles),measurement,setting,value
COc1ccc(Cn2cc(C(=O)N/N=C3/C(=O)Nc4ccc(Br)cc43)nn2)cc1,growth at 10 µM,HL-60(TB),85.2%
same,growth at 10 µM,MOLT-4,80.6%
same,growth at 10 µM,RPMI-8226,100%
same,growth at 10 µM,A549,95.1%
same,growth at 10 µM,EKVX,106%
same,growth at 10 µM,HOP-62,111%
same,growth at 10 µM,NCI-H460,111%
same,growth at 10 µM,HCC 2998,98.5%
same,growth at 10 µM,HCT-116,77%
same,growth at 10 µM,HCT-15,105%
same,growth at 10 µM,HT-29,88.5%
same,growth at 10 µM,KM12,104%
same,growth at 10 µM,SF-268,94.1%
same,growth at 10 µM,SF-539,104%
same,growth at 10 µM,SNB-19,97.3%
same,growth at 10 µM,LOX IMVI,107%
same,growth at 10 µM,Malme-3M,-89.9%
same,growth at 10 µM,M14,111%
same,growth at 10 µM,MDA-MB-435,101%
same,growth at 10 µM,SK-MEL-2,98%
same,growth at 10 µM,SK-MEL-5,98.3%
same,growth at 10 µM,UACC-62,97.2%
same,growth at 10 µM,IGROV-1,105%
same,growth at 10 µM,OVCAR-5,106%
same,growth at 10 µM,OVCAR-8,99.2%
same,growth at 10 µM,NCI/ADR-RES,103%
same,growth at 10 µM,ACHN,110%
same,growth at 10 µM,CAKI-1,97.7%
same,growth at 10 µM,RXF 393,99.8%
same,growth at 10 µM,SN12C,102%
same,growth at 10 µM,TK-10,97.6%
same,growth at 10 µM,PC-3,99.8%
same,growth at 10 µM,MDA-MB-231,108%
same,growth at 10 µM,Hs-578T,114%
